pKd: −log10 of the molar value.
Key:
AsqJ [1] = biological target: T1, AsqJ (Aspergillus nidulans, UniProt Q5AR53); assay: EPR titration of Mn2+-loaded AsqJ; format: binding
AsqJ [2] = biological target: T1, AsqJ; assay: X-ray crystal structure; format: binding; conditions: Fe, 2OG; formed in crystal from 1-H with 1 mM ascorbate and O2, 1.63 Å

T1 sequence (Q5AR53 109-416): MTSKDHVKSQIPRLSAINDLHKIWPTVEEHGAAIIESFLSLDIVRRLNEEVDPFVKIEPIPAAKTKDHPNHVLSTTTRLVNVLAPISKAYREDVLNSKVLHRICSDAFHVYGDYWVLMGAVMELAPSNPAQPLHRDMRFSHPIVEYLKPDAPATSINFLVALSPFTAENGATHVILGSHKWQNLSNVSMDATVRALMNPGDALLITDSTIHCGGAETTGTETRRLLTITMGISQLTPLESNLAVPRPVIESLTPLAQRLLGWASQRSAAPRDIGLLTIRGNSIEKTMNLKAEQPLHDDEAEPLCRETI

Row | Structure (SMILES) | pKd (AsqJ [1]) | X-ray crystal structure (AsqJ [2])
1 | CN1C(=O)c2ccccc2NC(=O)/C1=C/c1ccc(C(F)(F)F)cc1 [2-CF3] | ~5.30 | –
2 | CN1C(=O)c2ccccc2NC(=O)[C@@]12O[C@H]2c1ccccc1 [3-H, cyclopenin] | – | revealed the presence of 3-H, and 2OG in the active site
